Measurements as given in patent publication US6949516B2, “Dipeptide apoptosis inhibitors and the use thereof” (Cytovia, Inc., priority 1997, dated 2005).

Tested on: PARP cleavage in Jurkat cells
Test: Inhibition of PARP cleavage in antiFas-treated Jurkat cells (Example 22, Western blot)
Assay type: cell-based, human
Conditions: for inhibition of PARP cleavage: antiFas-treated Jurkat cells
Source text: The cleavage of the enzyme poly(ADP)ribose polymerase (PARP) appears to occur in all cells in which the caspase proteolytic cascade is activated. For this reason, PARP cleavage is widely used as a biochemical marker for caspase-mediated apoptosis. The ability of a cytoprotective drug to block PARP cleavage is considered to be an indication of the drug's ability to inhibit the caspase proteolytic cascade and, in particular, CPP32 (caspase-3), the main PARP protease. The ability of Cbz-Val-Asp(OMe)-CH2F to inhibit PARP cleavage was examined during Fas-mediated apoptosis of Jurkat cells, a human T-cell line. This cell culture model of apoptosis is well-characterized and is known to involve activation of at least two caspases, caspase-3 (CPP32) and caspase-8 (FLICE/MACH).
For PARP cleavage assays, Jurkat cells were seeded at a density of 500,000 cells per well in six-well multidishes in RPMI 1640 medium containing 10% FBS. The cells were pre-incubated with Cbz-Val-Asp(OMe)-CH2F or other test compounds for 2 hours at 37° C. in a CO2 incubator and then a monoclonal antibody to Fas was added at a final concentration of 500 ng/mL. Incubation at 37° C. in a CO2 incubator was continued for an additional 4 hours. […] An amount of lysate corresponding to 10 to 20 μg of protein was loaded on a 7.5% SDS polyacrylamide gel and electrophoresed for 2 to 2.5 hrs at 25 mA. The protein was then transferred to a PVDF membrane, probed with a rabbit polyclonal antibody to PARP, and visualized using chemiluminescence.
Jurkat cells were pre-incubated with 0.5, 5, or 50 μM of the following compounds: Cbz-Val-Asp(OMe)-CH2F (compound 1); BOC-Asp(OMe)-CH2F (compound 5); Cbz-Asp-α-([2,6-dichlorobenzoyloxy]-methyl ketone) (compound 6), Cbz-Glu(OMe)-Val-Asp(OMe)-CH2F (compound 3), Cbz-Asp(OMe)-Glu(OMe)-Val-Asp(OMe)-CH2F (SEQ ID NO:1) (compound 2), Cbz-Ile-Glu(OMe)-Thr-Asp(OMe)-CH2F (SEQ ID NO:2) (compound 4), or Cbz-Val-Ala-Asp(OMe)-CH2F (compound 7). The cells were then treated with antiFas and processed for Western Blotting.

COC(=O)CC(NC(=O)C(NC(=O)OCc1ccccc1)C(C)C)C(=O)CF (stereo not drawn) [Cbz-Val-Asp(OMe)-CH2F, Z-Val-Asp-fmk Methyl Ester]
inhibition of PARP cleavage (0.5 μM): significant inhibition | inhibition of PARP cleavage (5 μM): completely inhibited | inhibition of PARP cleavage (50 μM): completely inhibited | concentration blocking the caspase proteolytic cascade in intact cells, fold lower than other known caspase inhibitors (Jurkat cells): at least 10 fold
